Article PMC9013686, “Inter-individual variation in chlorpyrifos toxicokinetics characterized by physiologically based kinetic (PBK) and Monte Carlo simulation comparing human liver microsome and Supersome™ cytochromes P450 (CYP)-specific kinetic data as model input” (Archives of Toxicology, 2022)
Where “and” joins values, the source holds several entries; their conditions need not be identical. Equal values may be shown once. Marks after values point to notes of the source that are not given here.

Legend:
[1] = system: paraoxonase1 (PON1) in liver; conditions: Pathway 3 (CPO to TCPy in liver); pooled HLMs; ref Zhao et al. ([2019]); cited from earlier work
[2] = system: PON1 in plasma; assay: PON1-catalyzed detoxification of CPO to TCPy in individual human plasma (pathway 4); assay type: in vitro ADME; conditions: for CE / Scaled CE / Vmax / Vmax (app) / Scaled Vmax: CPO to TCPy; for Scaled Vmax: Eq 7
Method: After 1 min preincubation in a shaking 37 °C water bath, 1 µl of individual HP was added into the incubation system. Control incubations were performed by replacing plasma with the same amount of 50 mM Tris–HCl (pH 7.4). The total volume of the incubation mixtures was 200 µl. The incubation lasted for 1.5 min at 37 °C and was terminated by addition of 200 µl ice cold ACN and subsquently put on ice. Samples were subsequently centrifuged at 16,000 g (4 ℃) for 5 min and analyzed by UPLC-PDA. […]
In pathway 4, the in vivo VmaxHP (µmol/h) was extrapolated from its corresponding mean of the apparent VmaxHP(app) (nmol/min/ml plasma) of 25 individuals HP using Eq. 7:7 VmaxHP=VmaxHP(app)×60×1000×VB×0.55/1000,

For CCOP(=O)(OCC)Oc1nc(Cl)c(Cl)cc1Cl [CPO, chlorpyrifos-oxon], the Km [1] is listed as 628 µM, the Vmax [1] is listed as 37.980 ^e nmol/min/mg microsomal protein and the “difference between the highest and the lowest CE” value ([2]; CPO detoxification in plasma of 25 individuals) is listed as “around 2.6 fold”. For the same compound, the CE ([2]; plasma individual 1 (64)) was 4.1 ml/min/ml plasma, the “Scaled CE” value ([2]; plasma individual 1 (64)) was 750.1 L/h and the Vmax ([2]; plasma individual 1 (64)) was 1596 nmol/min/ml plasma. For the same compound, the “Vmax (app)” value ([2]; plasma individual 1 (64)) was 21.78 nmol/min/mg plasma protein, the “Scaled Vmax” value ([2]; plasma individual 1 (64)) was 291247 µmol/h and the CE ([2]; plasma individual 2 (65)) was 4.0 ml/min/ml plasma. For the same compound, the “Scaled CE” value ([2]; plasma individual 2 (65)) was 724.7 L/h, the Vmax ([2]; plasma individual 2 (65)) was 1233 nmol/min/ml plasma and the “Vmax (app)” value ([2]; plasma individual 2 (65)) was 17.32 nmol/min/mg plasma protein. The “Scaled Vmax” value ([2]; plasma individual 2 (65)) was 224952 µmol/h, the CE ([2]; plasma individual 3 (56)) was 6.4 ml/min/ml plasma and the “Scaled CE” value ([2]; plasma individual 3 (56)) was 1172.4 L/h. The Vmax ([2]; plasma individual 3 (56)) was 2439 nmol/min/ml plasma, the “Vmax (app)” value ([2]; plasma individual 3 (56)) was 32.15 nmol/min/mg plasma protein and the “Scaled Vmax” value ([2]; plasma individual 3 (56)) was 445176 µmol/h. For the same compound, the CE ([2]; plasma individual 4 (52)) was 5.0 ml/min/ml plasma, the “Scaled CE” value ([2]; plasma individual 4 (52)) was 915.9 L/h and the Vmax ([2]; plasma individual 4 (52)) was 1591 nmol/min/ml plasma. For the same compound, the “Vmax (app)” value ([2]; plasma individual 4 (52)) was 22.39 nmol/min/mg plasma protein, the “Scaled Vmax” value ([2]; plasma individual 4 (52)) was 290427 µmol/h and the CE ([2]; plasma individual 5 (51)) was 5.2 ml/min/ml plasma. The “Scaled CE” value ([2]; plasma individual 5 (51)) was 939.9 L/h, the Vmax ([2]; plasma individual 5 (51)) was 3284 nmol/min/ml plasma and the “Vmax (app)” value ([2]; plasma individual 5 (51)) was 45.36 nmol/min/mg plasma protein. The “Scaled Vmax” value ([2]; plasma individual 5 (51)) was 599306 µmol/h, the CE ([2]; plasma individual 6 (57)) was 5.7 ml/min/ml plasma and the “Scaled CE” value ([2]; plasma individual 6 (57)) was 1047.5 L/h. The Vmax ([2]; plasma individual 6 (57)) was 1878 nmol/min/ml plasma, the “Vmax (app)” value ([2]; plasma individual 6 (57)) was 23.22 nmol/min/mg plasma protein and the “Scaled Vmax” value ([2]; plasma individual 6 (57)) was 342626 µmol/h. For the same compound, the CE ([2]; plasma individual 7) was 7.9 ml/min/ml plasma, the “Scaled CE” value ([2]; plasma individual 7) was 1441.5 L/h and the Vmax ([2]; plasma individual 7) was 1203 nmol/min/ml plasma. The “Vmax (app)” value ([2]; plasma individual 7) was 14.99 nmol/min/mg plasma protein, the “Scaled Vmax” value ([2]; plasma individual 7) was 219543 µmol/h and the CE ([2]; plasma individual 8) was 7.3 ml/min/ml plasma. For the same compound, the “Scaled CE” value ([2]; plasma individual 8) was 1332.3 L/h, the Vmax ([2]; plasma individual 8) was 1663 nmol/min/ml plasma and the “Vmax (app)” value ([2]; plasma individual 8) was 21.31 nmol/min/mg plasma protein. For the same compound, the “Scaled Vmax” value ([2]; plasma individual 8) was 303506 µmol/h, the CE ([2]; plasma individual 9) was 7.6 ml/min/ml plasma and the “Scaled CE” value ([2]; plasma individual 9) was 1391.7 L/h. The Vmax ([2]; plasma individual 9) was 2157 nmol/min/ml plasma, the “Vmax (app)” value ([2]; plasma individual 9) was 27.46 nmol/min/mg plasma protein and the “Scaled Vmax” value ([2]; plasma individual 9) was 393583 µmol/h. For the same compound, the CE ([2]; plasma individual 10) was 9.2 ml/min/ml plasma, the “Scaled CE” value ([2]; plasma individual 10) was 1671.6 L/h and the Vmax ([2]; plasma individual 10) was 2370 nmol/min/ml plasma. For the same compound, the “Vmax (app)” value ([2]; plasma individual 10) was 28.9 nmol/min/mg plasma protein, the CE ([2]; plasma individual 11) was 6.4 ml/min/ml plasma and the “Scaled CE” value ([2]; plasma individual 11) was 1168.7 L/h. The Vmax ([2]; plasma individual 11) was 1314 nmol/min/ml plasma, the “Vmax (app)” value ([2]; plasma individual 11) was 17.42 nmol/min/mg plasma protein and the “Scaled Vmax” value ([2]; plasma individual 11) was 239710 µmol/h. The CE ([2]; plasma individual 12) was 8.2 ml/min/ml plasma, the “Scaled CE” value ([2]; plasma individual 12) was 1500.5 L/h and the Vmax ([2]; plasma individual 12) was 2461 nmol/min/ml plasma. For the same compound, the “Vmax (app)” value ([2]; plasma individual 12) was 26.75 nmol/min/mg plasma protein, the “Scaled Vmax” value ([2]; plasma individual 12) was 449105 µmol/h and the CE ([2]; plasma individual 13) was 6.6 ml/min/ml plasma. For the same compound, the “Scaled CE” value ([2]; plasma individual 13) was 1211.5 L/h, the Vmax ([2]; plasma individual 13) was 1498 nmol/min/ml plasma and the “Vmax (app)” value ([2]; plasma individual 13) was 20.58 nmol/min/mg plasma protein. The “Scaled Vmax” value ([2]; plasma individual 13) was 273437 µmol/h, the CE ([2]; plasma individual 14) was 5.8 ml/min/ml plasma and the “Scaled CE” value ([2]; plasma individual 14) was 1053.7 L/h. The Vmax ([2]; plasma individual 14) was 2064 nmol/min/ml plasma, the “Vmax (app)” value ([2]; plasma individual 14) was 28.36 nmol/min/mg plasma protein and the “Scaled Vmax” value ([2]; plasma individual 14) was 376692 µmol/h. The CE ([2]; plasma individual 15) was 9.8 ml/min/ml plasma, the “Scaled CE” value ([2]; plasma individual 15) was 1793.2 L/h and the Vmax ([2]; plasma individual 15) was 1840 nmol/min/ml plasma. For the same compound, the “Vmax (app)” value ([2]; plasma individual 15) was 24.79 nmol/min/mg plasma protein, the “Scaled Vmax” value ([2]; plasma individual 15) was 335867 µmol/h and the CE ([2]; plasma individual 16) was 3.7 ml/min/ml plasma. The “Scaled CE” value ([2]; plasma individual 16) was 671.6 L/h, the Vmax ([2]; plasma individual 16) was 912 nmol/min/ml plasma and the “Vmax (app)” value ([2]; plasma individual 16) was 11.28 nmol/min/mg plasma protein. For the same compound, the “Scaled Vmax” value ([2]; plasma individual 16) was 166366 µmol/h, the CE ([2]; plasma individual 17) was 8.1 ml/min/ml plasma and the “Scaled CE” value ([2]; plasma individual 17) was 1480.1 L/h. The Vmax ([2]; plasma individual 17) was 2287 nmol/min/ml plasma, the “Vmax (app)” value ([2]; plasma individual 17) was 32.03 nmol/min/mg plasma protein and the “Scaled Vmax” value ([2]; plasma individual 17) was 417377 µmol/h. The CE ([2]; plasma individual 18) was 5.6 ml/min/ml plasma, the “Scaled CE” value ([2]; plasma individual 18) was 1029.2 L/h and the Vmax ([2]; plasma individual 18) was 1132 nmol/min/ml plasma. The “Vmax (app)” value ([2]; plasma individual 18) was 15.18 nmol/min/mg plasma protein, the “Scaled Vmax” value ([2]; plasma individual 18) was 206569 µmol/h and the CE ([2]; plasma individual 19 (48)) was 5.3 ml/min/ml plasma. For the same compound, the “Scaled CE” value ([2]; plasma individual 19 (48)) was 971.2 L/h, the Vmax ([2]; plasma individual 19 (48)) was 1329 nmol/min/ml plasma and the “Vmax (app)” value ([2]; plasma individual 19 (48)) was 18.21 nmol/min/mg plasma protein. For the same compound, the “Scaled Vmax” value ([2]; plasma individual 19 (48)) was 242612 µmol/h, the CE ([2]; plasma individual 20 (49)) was 6.9 ml/min/ml plasma and the “Scaled CE” value ([2]; plasma individual 20 (49)) was 1252.4 L/h. For the same compound, the Vmax ([2]; plasma individual 20 (49)) was 2111 nmol/min/ml plasma, the “Vmax (app)” value ([2]; plasma individual 20 (49)) was 24.85 nmol/min/mg plasma protein and the “Scaled Vmax” value ([2]; plasma individual 20 (49)) was 385226 µmol/h. For the same compound, the CE ([2]; plasma individual 21 (44)) was 6.5 ml/min/ml plasma, the “Scaled CE” value ([2]; plasma individual 21 (44)) was 1181.9 L/h and the Vmax ([2]; plasma individual 21 (44)) was 1835 nmol/min/ml plasma. The “Vmax (app)” value ([2]; plasma individual 21 (44)) was 23.05 nmol/min/mg plasma protein, the “Scaled Vmax” value ([2]; plasma individual 21 (44)) was 334943 µmol/h and the CE ([2]; plasma individual 22 (34)) was 7.3 ml/min/ml plasma. The “Scaled CE” value ([2]; plasma individual 22 (34)) was 1325.9 L/h, the Vmax ([2]; plasma individual 22 (34)) was 1726 nmol/min/ml plasma and the “Vmax (app)” value ([2]; plasma individual 22 (34)) was 24.05 nmol/min/mg plasma protein. For the same compound, the “Scaled Vmax” value ([2]; plasma individual 22 (34)) was 315041 µmol/h, the CE ([2]; plasma individual 23 (47)) was 5.7 ml/min/ml plasma and the “Scaled CE” value ([2]; plasma individual 23 (47)) was 1044.7 L/h. For the same compound, the Vmax ([2]; plasma individual 23 (47)) was 2141 nmol/min/ml plasma, the “Vmax (app)” value ([2]; plasma individual 23 (47)) was 24.05 nmol/min/mg plasma protein and the “Scaled Vmax” value ([2]; plasma individual 23 (47)) was 390628 µmol/h. For the same compound, the CE ([2]; plasma individual 24 (28)) was 8.7 ml/min/ml plasma, the “Scaled CE” value ([2]; plasma individual 24 (28)) was 1595.0 L/h and the Vmax ([2]; plasma individual 24 (28)) was 2357 nmol/min/ml plasma. For the same compound, the “Vmax (app)” value ([2]; plasma individual 24 (28)) was 28.44 nmol/min/mg plasma protein, the “Scaled Vmax” value ([2]; plasma individual 24 (28)) was 430169 µmol/h and the CE ([2]; plasma individual 25 (41)) was 7.1 ml/min/ml plasma. The “Scaled CE” value ([2]; plasma individual 25 (41)) was 1293.4 L/h, the Vmax ([2]; plasma individual 25 (41)) was 1676 nmol/min/ml plasma and the “Vmax (app)” value ([2]; plasma individual 25 (41)) was 22.13 nmol/min/mg plasma protein. For the same compound, the “Scaled Vmax” value ([2]; plasma individual 25 (41)) was 305884 µmol/h and the “Vmax (mean)” value ([2]; Pathway 4 (CPO to TCPy in plasma), mean of 25 individual HP samples) was 1844 nmol/min/ml plasma and 1844.000^i nmol/min/ml plasma.
